# Reference: patent publication US11866430B2, “Naphthyridinone compounds useful as T cell activators” (priority 2018, dated 2024)
# Like-named read-outs stand apart in the source and are kept apart here.
# Experiments:
# human DGKα = human DGKα (Homo sapiens (Human), UniProt P23743); assay: biochemical; settings: detergent/lipid micelle substrate; read-out: DGKα IC50
# In short: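 Full-length human DGKζ (and DGKα), C-terminal His-tagged, Sf9-expressed, with phosphatidylserine/DAG micelles in 50 mM octyl glucoside; buffer 50 mM MOPS pH 7.5, 100 mM NaCl, 10 mM MgCl2, 1 μM CaCl2, 1 mM DTT.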
# Human venous whole blood = assay: Human Whole Blood IFN-γ Assay; format: cell-based; settings: human whole blood, anti-CD3 plus anti-CD28 as baseline, 3 μM Example 40 co-stimulation as 100% activation, read-out: INF-γ Whole Blood Normalized Agonist EC50
# Protocol: Human venous whole blood (22.5 μL per well), obtained from healthy donors, was pre-treated with compounds for one hour at 37° C. in a humidified 95% air/5% CO2 incubator. The blood was stimulated with 2.5 μL anti-human CD3 and anti-CD28 mAb at a final concentration of 1 μg/mL each for 24 hours at 37° C. IFN-γ in the supernatants was measured using AlphaLISA kit (Cat #AL217).
# naïve human CD8 T cells [1] = assay: CellTiter-Glo CD8 T Cell Proliferation Assay; format: cell-based; settings: CellTiter-Glo CD8 T cell proliferation, normalized, read-out: CD8 GLO normalized EC50
# Protocol: Frozen naïve human CD8 T cells were thawed in RPMI+10% FBS, incubated for 2 h in 37° C., and counted. The 384-well tissue culture plate was coated overnight at 4° C. with 20 μl anti-human CD3 at 0.1 μg/mL in plain RPMI, which was removed off the plate before 20 k/40 μl CD8 T cells with 0.5 μg/mL soluble anti-human CD28 were added to each well. The compounds were echoed to the cell plate immediately after the cells were plated. After 72 h incubation at 37° C. incubator, 10 μl CellTiter-glo reagent (Promega catalog number G7570) was added to each well. The plate was vigorously shaken for 5 mins, incubated at room temperature for another 15 mins and read on Envision for CD8 T cell proliferation. In analysis, 0.1 μg/mL anti-CD3 and 0.5 μg/mL anti-CD28 stimulated CD8 T cell signal was background.
# naïve human CD8 T cells [2] = assay: cells; settings: 3 μM Example 40 co-stimulation as 100% activation
# Protocol: Frozen naïve human CD8 T cells were thawed in ATM-V media, incubated for 2 h in 37° C., and counted. The 384-well tissue culture plate was coated overnight at 4° C. with 20 μl anti-human CD3 at 0.05 μg/mL in PBS, which was removed off the plate before 40,000 cells per 40 microliters CD8 T cells with 0.1 μg/mL soluble anti-human CD28 were added to each well. The compounds were transferred using an Echo liquid handler to the cell plate immediately after the cells were plated. After 20 h incubation at 37° C. incubator, 3 microliters per well supernatants transferred into a new 384-well white assay plate for cytokine measurement.
# Interferon-γ (IFN-γ) was quantitated using the AlphaLISA kit (Cat #AL217) as described by the manufacturer manual (Perkin Elmer). The counts from each well were converted to IFN-γ concentration […].
# [3] = test system: pre-activated CD4 T cells and Raji cells; assay: Raji CD4 T Cell IL2 Assay; format: cell-based; settings: Homo sapiens, Raji
# [4] = Homo sapiens, T-cell, read-out: HuCD8 INFG Normalized EC50, anti-CD3 plus anti-CD28 as baseline
# Chain of human DGKα (P23743 other isoform, or with tags, fused parts or gaps): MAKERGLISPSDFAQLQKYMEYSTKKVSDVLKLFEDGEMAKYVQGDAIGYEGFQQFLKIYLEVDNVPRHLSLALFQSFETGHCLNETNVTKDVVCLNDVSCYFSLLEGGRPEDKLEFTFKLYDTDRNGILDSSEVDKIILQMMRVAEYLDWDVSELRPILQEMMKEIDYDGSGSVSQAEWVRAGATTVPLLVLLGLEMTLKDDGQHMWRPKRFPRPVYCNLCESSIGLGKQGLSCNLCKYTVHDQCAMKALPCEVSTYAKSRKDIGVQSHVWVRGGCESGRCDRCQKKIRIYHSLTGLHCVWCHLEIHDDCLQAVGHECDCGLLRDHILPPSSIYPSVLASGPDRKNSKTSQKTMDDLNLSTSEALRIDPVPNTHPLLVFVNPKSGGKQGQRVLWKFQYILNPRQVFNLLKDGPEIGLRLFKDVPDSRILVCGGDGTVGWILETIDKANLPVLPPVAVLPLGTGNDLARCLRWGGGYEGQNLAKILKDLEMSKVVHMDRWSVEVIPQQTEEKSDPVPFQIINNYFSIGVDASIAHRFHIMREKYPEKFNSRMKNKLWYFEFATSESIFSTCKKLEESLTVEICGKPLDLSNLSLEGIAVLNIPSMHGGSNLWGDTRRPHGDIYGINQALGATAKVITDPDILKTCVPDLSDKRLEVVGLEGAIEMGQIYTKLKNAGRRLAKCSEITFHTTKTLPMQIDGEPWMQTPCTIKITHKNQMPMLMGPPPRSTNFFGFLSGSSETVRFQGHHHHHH
structure (smiles),measurement,setting,value
"C#CCn1c(=O)c([N+](=O)[O-])c(N2CCN(C(c3ccc(F)cc3)c3ccc(F)cc3O)CC2)c2nc(C#N)ccc21 (single isomer, unassigned) [Example 121, 8-(4-((4-fluoro-2-hydroxyphenyl)(4-fluorophenyl)methyl)piperazin-1-yl)-7-nitro-6-oxo-5-(prop-2-yn-1-yl)-5,6-dihydro-1,5-naphthyridine-2-carbonitrile]",IC50,human DGKα,1900 nM
same,EC50,Human venous whole blood; Homo sapiens,550 nM
"Cc1ccc2c(n1)c(N1CCN(C(C)c3ccc(F)cc3)CC1)c(Br)c(=O)n2C (centres unmarked) [Example 224, 3-bromo-4-(4-(1-(4-fluorophenyl)ethyl)piperazin-1-yl)-1,6-dimethyl-1,5-naphthyridin-2(1H)-one]",IC50,human DGKα,540 nM
same,EC50,"naïve human CD8 T cells [1]; Homo sapiens, T-cell",4280 nM
"Cc1ccc2c(n1)c(N1CCN(Cc3cccc(Cl)c3O)CC1)c(C#N)c(=O)n2C [Example 389, 4-{4-[(3-chloro-2-hydroxyphenyl)methyl]piperazin-1-yl}-1,6-dimethyl-2-oxo-1,2-dihydro-1,5-naphthyridine-3-carbonitrile]",IC50,human DGKα,850 nM
"C#CCn1c(=O)c([N+](=O)[O-])c(N2CCN(C(CC)c3ccc(F)cc3)CC2)c2nc(C#N)ccc21 (single isomer, unassigned) [Example 141, 8-{4-[1-(4-fluorophenyl)propyl]piperazin-1-yl}-7-nitro-6-oxo-5-(prop-2-yn-1-yl)-5,6-dihydro-1,5-naphthyridine-2-carbonitrile]",IC50,human DGKα,270 nM
same,EC50,naïve human CD8 T cells [2]; [4],30 nM
same,EC50,"naïve human CD8 T cells [1]; Homo sapiens, T-cell",10 nM
"CCCCn1c(=O)c([N+](=O)[O-])c(N2CCN(C(c3ccccc3)c3ccccc3)CC2)c2ncccc21 [Example 177, 4-(4-benzhydrylpiperazin-1-yl)-1-butyl-3-nitro-1,5-naphthyridin-2(1H)-one]",EC50,"naïve human CD8 T cells [1]; Homo sapiens, T-cell",10000 nM
"Cn1c(=O)c([N+](=O)[O-])c(N2CCN(CC(O)c3ccc(F)cc3)CC2)c2nc(C#N)ccc21 (centres unmarked) [Example 36, 8-{4-[2-(4-fluorophenyl)-2-hydroxyethyl]piperazin-1-yl}-5-methyl-7-nitro-6-oxo-5,6-dihydro-1,5-naphthyridine-2-carbonitrile]",IC50,human DGKα,1400 nM
"COc1cc(F)ccc1C(c1ccc(F)cc1)N1CCN(c2c(C#N)c(=O)n(C)c3ccc(C#N)nc23)CC1 (single isomer, unassigned) [Example 406, 8-{4-[(4-fluoro-2-methoxyphenyl)(4-fluorophenyl)methyl]piperazin-1-yl}-5-methy-6-oxo-5,6-dihydro-L5-naphthyridine-2,7-dicarbonitrile]",EC50,"naïve human CD8 T cells [2]; read-out: HuCD8 INFG Normalized EC50, anti-CD3 plus anti-CD28 as baseline",410 nM
same,EC50,Human venous whole blood,2190 nM
"COc1cc(C#N)ccc1CN1CCN(c2c(C#N)c(=O)n(C)c3ccc(Cl)nc23)CC1 [Example 424, 6-chloro-4-{4-[(4-cyano-2-methoxyphenyl)methyl]piperazin-1-yl}-1-methyl-2-oxo-1,2-dihydro-1,5-naphthyridine-3-carbonitrile]",IC50,human DGKα,770 nM
same,IC50,[3],> 100 µM
"Cn1c(=O)c([N+](=O)[O-])c(N2CCN(Cc3cccc4ccccc34)CC2)c2nc(C#N)ccc21 [Example 415, 5-methyl-8-{4-[(naphthalen-1-yl)methyl]piperazin-1-yl}-7-nitro-6-oxo-5,6-dihydro-1,5-naphthyridine-2-carbonitrile]",EC50,"naïve human CD8 T cells [1]; Homo sapiens, T-cell",20 nM
"C#CCn1c(=O)c([N+](=O)[O-])c(N2CCN(C(c3ccc(F)cc3)C3CC3)CC2)c2nc(C#N)ccc21 (single isomer, unassigned) [Example 143, 8-(4-(cyclopropyl(4-fluorophenyl)methyl)piperazin-1-yl)-7-nitro-6-oxo-5-(prop-2-yn-1-yl)-5,6-dihydro-1,5-naphthyridine-2-carbonitrile]",IC50,human DGKα,1300 nM
same,EC50,naïve human CD8 T cells [2]; [4],90 nM
same,EC50,"naïve human CD8 T cells [1]; Homo sapiens, T-cell",10 nM
"C#CCn1c(=O)c([N+](=O)[O-])c(N2CCN(C(C)c3ccc(F)cc3)CC2)c2nc(C#N)ccc21 (single isomer, unassigned) [Example 136, 8-(4-(1-(4-fluorophenyl)ethyl)piperazin-1-yl)-7-nitro-6-oxo-5-(prop-2-yn-1-yl)-5,6-dihydro-1,5-naphthyridine-2-carbonitrile]",IC50,human DGKα,210 nM
same,EC50,Human venous whole blood,1160 nM
"Cn1c(=O)c(C#N)c(N2CCN(C(c3ccc(F)cc3)C3CCC3)CC2)c2nc(Cl)ccc21 (single isomer, unassigned) [Example 382, 6-chloro-4-{4-[cyclobutyl(4-fluorophenyl)methyl]piperazin-1-yl}-1-methyl-2-oxo-1,2-dihydro-1,5-naphthyridine-3-carbonitrile]",EC50,naïve human CD8 T cells [1],1790 nM
"Cn1c(=O)c(C#N)c(N2CCN(C(c3ccc(F)cc3)C3CCC3)CC2)c2nc(Cl)ccc21 (single isomer, unassigned) [Example 383, 6-chloro-4-{4-[cyclobutyl(4-fluorophenyl)methyl]piperazin-1-yl}-1-methyl-2-oxo-1,2-dihydro-1,5-naphthyridine-3-carbonitrile]",EC50,naïve human CD8 T cells [1],60 nM
"Cc1ccc(CN2CCN(c3c(C#N)c(=O)n(C)c4ccc(Br)nc34)CC2)c(O)c1 [Example 372, 6-bromo-4-{4-[(2-hydroxy-4-methylphenyl)methyl]piperazin-1-yl}-1-methyl-2-oxo-1,2-dihydro-1,5-naphthyridine-3-carbonitrile]",IC50,human DGKα,33 nM
same,IC50,[3],> 100 µM
same,EC50,Human venous whole blood; Homo sapiens,5000 nM
"Cc1cccc(CN2CCN(c3c(C#N)c(=O)n(C)c4ccc(Cl)nc34)CC2)c1O [Example 391, 6-chloro-4-{4-[(2-hydroxy-3-methylphenyl)methyl]piperazin-1-yl}-1-methyl-2-oxo-1,2-dihydro-1,5-naphthyridine-3-carbonitrile]",IC50,human DGKα,260 nM
same,EC50,Human venous whole blood; Homo sapiens,3500 nM
"Cn1c(=O)c(C#N)c(N2CCN(C(CC(C)(C)C)c3ccc(F)cc3)CC2)c2nc(Cl)ccc21 (single isomer, unassigned) [Example 378, 6-chloro-4-{4-[1-(4-fluorophenyl)-3,3-dimethylbutyl]piperazin-1-yl}-1-methyl-2-oxo-1,2-dihydro-1,5-naphthyridine-3-carbonitrile]",EC50,naïve human CD8 T cells [1],1740 nM
"CC(c1ccc(F)cc1)N1CCN(c2c(C#N)c(=O)n(C)c3ccc(Cl)nc23)CC1 (single isomer, unassigned) [Example 388, 6-chloro-4-{4-[1-(4-fluorophenyl)ethyl]piperazin-1-yl}-1-methyl-2-oxo-1,2-dihydro-1,5-naphthyridine-3-carbonitrile]",IC50,human DGKα,53 nM
same,EC50,naïve human CD8 T cells [1],480 nM
"Cn1c(=O)c(C#N)c(N2CCN(C(CC(C)(C)C)c3ccc(F)cc3)CC2)c2nc(Cl)ccc21 (single isomer, unassigned) [Example 377, 6-chloro-4-{4-[1-(4-fluorophenyl)-3,3-dimethylbutyl]piperazin-1-yl}-1-methyl-2-oxo-1,2-dihydro-1,5-naphthyridine-3-carbonitrile]",EC50,naïve human CD8 T cells [1],10000 nM
"CC(C)C(c1ccc(F)cc1)N1CCN(c2c(C#N)c(=O)n(C)c3ccc(Cl)nc23)CC1 (single isomer, unassigned) [Example 315, 6-chloro-4-{4-[1-(4-fluorophenyl)-2-methylpropyl]piperazin-1-yl}-methyl-2-oxo-1,2-dihydro-1,5-naphthyridine-3-carbonitrile]",IC50,[3],0.25 µM
same,EC50,"naïve human CD8 T cells [1]; Homo sapiens, T-cell",1260 nM
"CC(c1ccc(F)cc1)N1CCN(c2c(C#N)c(=O)n(C)c3ccc(Cl)nc23)CC1 (single isomer, unassigned) [Example 387, 6-chloro-4-{4-[1-(4-fluorophenyl)ethyl]piperazin-1-yl}-1-methyl-2-oxo-1,2-dihydro-1,5-naphthyridine-3-carbonitrile]",EC50,naïve human CD8 T cells [1],180 nM
"Cn1c(=O)c(C#N)c(N2CCN(C(c3ccc(F)cc3)c3ccccc3O)CC2)c2nc(C#N)ccc21 (centres unmarked) [Example 11, 8-{4-[(4-fluorophenyl)(2-hydroxyphenyl)methyl]piperazin-1-yl}-5-methyl-6-oxo-5,6-dihydro-1,5-naphthyridine-2,7-dicarbonitrile]",IC50,human DGKα,450 nM
